Source: patent publication US10278942B2 (PELOTON THERAPEUTICS, INC., priority 2015, dated 2019)
Where two headings read alike, the source gives them in different places.

Legend:
786-O-Hif-Luc cells = assay: Luciferase Assay (HIF responsive elements reporter); conditions: read-out: Mean Luciferase EC50 (nM), 786-O-Hif-Luc cells
Experimental: A pool of infected cells were then selected against 2 μg/mL of puromycin (P8833, Sigma) for 10 days followed by limited dilution to select single clones. […] Each concentration was tested in triplicate. After about 24 hours, luciferase activity was determined using ONE-Glo Luciferase Assay Reagent (E6110, Promega) following the manufacturer's recommended procedure. EC50 were calculated using Dotmatics software.

786-O cells = assay: VEGF ELISA Assay; type: cell-based; conditions: Homo sapiens, 786-0
Experimental: Each concentration was plated in duplicate. About 20 hours later, medium was removed by suction and each well was supplied with 180 μL of growth medium. About 20 μl freshly-made 10× compound stocks were added to each well. […] The EC50 was calculated by GraphPad Prism using the dose-response-inhibition (four parameter) equation. The cell-seeded plate was then subjected to CellTiter-Glo luminescence cell viability assay (Promega) by adding 50 μL of Celltiter Glo reagent into each well and shaking the plate for 8 minutes at 550 rpm (Thermomixer R, Eppendorf) then the luminescence signal immediately read in a plate reader (3 second delay, 0.5 second/well integration time, Synergy 2 multi Detection Microplate reader).

[1] = biological target: T1, HIF-2α HIS TAG-PASB Domain (Homo sapiens, UniProt Q99814); assay: HIF-2α Scintillation Proximity Assay (SPA); type: binding
T1 construct: 100 nM HIF-2α HIS TAG-PASB Domain
In short: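 IC50 values rest on percent inhibition, where the sample signal is scaled between high and low controls. Wells contain about 100 μL: compound dispensed as 2 μL of DMSO solution, 88 μL protein-probe mix and 10 μL of beads.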

[2] = read-out: Scintillation Proximity Assay IC50
[3] = Scintillation Proximity Assay IC50 (nM)

T1 sequence (Q99814 240-350 limits assumed): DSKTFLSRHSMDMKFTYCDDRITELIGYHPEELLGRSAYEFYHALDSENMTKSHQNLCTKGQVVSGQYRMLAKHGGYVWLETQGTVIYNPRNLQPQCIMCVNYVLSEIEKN

| EC50 (786-O-Hif-Luc cells) [nM] | EC50 (786-O cells) [µM] | IC50 [1, 2] [nM] | IC50 [1, 3] [nM] | SMILES |
| --- | --- | --- | --- | --- |
| < 50 | < 0.05 | < 50 | – | CS(=O)(=O)c1ccc(Oc2cc(F)cc(F)c2)c2c1[C@H](O)C(F)(F)C2 [Compound 159] |
| < 50 | < 0.05 | < 50 | – | O=S(=O)(c1ccc(OC2CCOCC2)c2c1[C@H](O)C(F)(F)C2)C(F)(F)F [Compound 744] |
| 250 to 1000 | 0.25 to 1 | < 50 | – | CS(=O)(=O)c1ccc(OC2CC(F)(F)C2)c2c1[C@H](O)[C@H](F)[C@@H]2F [Compound 577] |
| 50 to 249 | 0.05 to 0.249 | 50 to 249 | – | N#CC1(COc2ccc(S(=O)(=O)C(F)(F)F)c3c2CC(F)(F)C3O)CC1 (stereo not drawn) [Compound 620] |
| 50 to 249 | 0.05 to 0.249 | < 50 | – | CS(=O)(=O)c1ccc(O[C@H]2C[C@@H](C#N)C2)c2c1[C@H](O)C(F)(F)[C@@H]2F [Compound 761] |
| < 50 | < 0.05 | < 50 | – | O=S(=O)(c1ccc(OCC2CC2)c2c1[C@H](O)C(F)(F)C2)C(F)(F)F [Compound 656] |
| > 1000 | 0.25 to 1 | 250 to 1000 | – | N#Cc1cc(F)cc(Oc2ccc(S(=O)(=O)C(F)F)cc2Br)c1 [Compound 132] |
| 250 to 1000 | 0.25 to 1 | < 50 | – | Cc1c(S(=O)(=O)C(F)F)ccc(Oc2cc(F)cc(F)c2)c1C#N [Compound 34] |
| < 50 | < 0.05 | < 50 | – | O=S(=O)(c1ccc(OCCCF)c2c1[C@H](O)C(F)(F)C2)C(F)(F)F [Compound 712] |
| < 50 | < 0.05 | < 50 | – | N#Cc1cc(F)cc(Nc2ccc(S(=O)(=O)C(F)(F)F)c3c2CC(F)(F)[C@H]3O)c1 [Compound 489, (S)-3-((2,2-difluoro-1-hydroxy-7-((trifluoromethyl)sulfonyl)-2,3-dihydro-1H-inden-4-yl)amino)-5-fluorobenzonitrile] |
| < 50 | 0.05 to 0.249 | < 50 | – | N#Cc1cncc(Oc2ccc(S(=O)(=O)C(F)(F)F)c3c2C[C@@H](F)[C@H]3O)c1 [Compound 225] |
| < 50 | < 0.05 | < 50 | – | N#Cc1cc(F)cc(Oc2ccc(S(=N)(=O)C(F)(F)F)c3c2CC(F)(F)[C@H]3O)c1 (stereo partly drawn) [Compound 305] |
| 250 to 1000 | 0.25 to 1 | 50 to 249 | – | O=[N+]([O-])c1c(Oc2cc(F)cc(Cl)c2)ccc(C(F)(F)F)c1Cl [Compound 203] |
| 50 to 249 | 0.25 to 1 | 50 to 249 | – | N#Cc1cc(Oc2ccc(S(=O)(=O)C(F)(F)F)c3c2CC(F)(F)[C@H]3O)c[n+]([O-])c1 [Compound 267] |
| < 50 | < 0.05 | < 50 | – | N#Cc1cc(F)cc(Oc2ccc(C(F)(F)F)c3c2CC(F)(F)[C@H]3O)c1 [Compound 273] |
| < 50 | < 0.05 | – | < 50 | O=S(=O)(c1ccc(Oc2cc(F)cc(Cl)c2)c2c1C(O)C(F)(F)C2)C(F)F (stereo not drawn) [Compound 8] |
| < 50 | < 0.05 | < 50 | – | O=S(=O)(c1ccc(OC2CC(F)(F)C2)c2c1[C@H](O)C(F)(F)C2)C(F)(F)F [Compound 572] |
| 250 to 1000 | 0.05 to 0.249 | 50 to 249 | – | CS(=O)(=O)c1ccc(Oc2cncc(C#N)c2)c2c1[C@H](O)C(F)(F)C2 [Compound 325] |
| 50 to 249 | 0.05 to 0.249 | < 50 | – | O=S(=O)(CF)c1ccc(Oc2cc(F)c(F)c(F)c2)c2c1[C@H](O)C(F)(F)C2 [Compound 188] |

| EC50 (786-O-Hif-Luc cells) [nM] | EC50 (786-O cells) [µM] | IC50 [1, 2] [nM] | IC50 [1, 3] [nM] | SMILES |
| --- | --- | --- | --- | --- |
| < 50 | 0.05 to 0.249 | < 50 | – | O=S(=O)(c1ccc(OC2CCCC2)c2c1C(O)C(F)(F)C2)C(F)(F)F (stereo not drawn) [Compound 605] |
| < 50 | < 0.05 | – | < 50 | O=S(=O)(c1ccc(Oc2cc(F)cc(Cl)c2)c2c1[C@H](O)C(F)(F)C2)C(F)F [Compound 158] |
| < 50 | < 0.05 | < 50 | – | O=S(=O)(c1ccc(OCC(F)F)c2c1[C@H](O)C(F)(F)C2)C(F)(F)F [Compound 571] |
| < 50 | < 0.05 | < 50 | – | CC(C)Oc1ccc(S(=O)(=O)C(F)(F)F)c2c1CC(F)(F)[C@H]2O [Compound 654] |
| < 50 | 0.05 to 0.249 | < 50 | – | N#Cc1cc(F)cc(Oc2ccc3c(c2Cl)[C@@H](O)C(F)(F)S3(=O)=O)c1 [Compound 431] |
| < 50 | 0.05 to 0.249 | < 50 | – | Cc1cc(C#N)cc(Oc2ccc(S(=O)(=O)CF)c3c2CC(F)(F)[C@H]3O)c1 [Compound 166] |
| 50 to 249 | 0.05 to 0.249 | < 50 | – | O=S(=O)(c1ccc(Nc2cc(F)cc(F)c2)c2c1C(O)C(F)(F)C2)C(F)(F)F (stereo not drawn) [Compound 507] |
| < 50 | < 0.05 | < 50 | – | O=S(=O)(c1ccc(Oc2ccc(F)c(F)c2)c2c1[C@H](O)C(F)(F)C2)C(F)(F)F [Compound 233] |
| 50 to 249 | 0.05 to 0.249 | < 50 | – | CS(=O)(=O)c1ccc(O[C@H]2C[C@@H](F)C2)c2c1[C@H](O)C(F)(F)[C@@H]2F [Compound 740] |
| 50 to 249 | 0.05 to 0.249 | < 50 | – | NC1c2c(ccc(Oc3cc(F)cc(F)c3)c2C(F)F)S(=O)(=O)C1(F)F (stereo not drawn) [Compound 365] |
| < 50 | < 0.05 | < 50 | – | O=S(=O)(c1ccc(Oc2cncc(F)c2)c2c1[C@H](O)C(F)(F)C2)C(F)(F)F [Compound 309] |
| < 50 | < 0.05 | < 50 | – | CC1(O)c2c(ccc(Oc3cc(F)cc(F)c3)c2C#N)S(=O)(=O)C1(F)F (stereo not drawn) [Compound 446] |
| < 50 | < 0.05 | < 50 | – | CS(=O)(=O)c1ccc(Oc2cc(F)cc(C#N)c2)c2c1[C@H](O)C(F)(F)[C@@H]2F [Compound 292, 3-fluoro-5-[(1S,3R)-2,2,3-trifluoro-1-hydroxy-7-methylsulfonyl-indan-4-yl]oxy-benzonitrile] |
| < 50 | < 0.05 | – | < 50 | N#Cc1cc(F)cc(Oc2ccc(S(=O)(=O)CF)c3c2CC(F)(F)[C@H]3O)c1 [Compound 63] |
| 50 to 249 | 0.05 to 0.249 | < 50 | – | O=S(=O)(CF)c1ccc(OC2CC(F)(F)C2)c2c1[C@H](O)[C@H](F)[C@@H]2F [Compound 578] |
| 50 to 249 | 0.25 to 1 | 50 to 249 | – | N#Cc1cncc(Oc2ccc3c(c2Br)[C@@H](O)C(F)(F)S3(=O)=O)c1 [Compound 424] |
| > 1000 | 0.25 to 1 | > 1000 | – | O=S(=O)(c1ccc(CCO)c2c1C(O)CC2)C(F)(F)F (stereo not drawn) [Compound 495, 4-(2-hydroxyethyl)-7-((trifluoromethyl)sulfonyl)-2,3-dihydro-1H-inden-1-ol] |
| 50 to 249 | 0.05 to 0.249 | < 50 | – | COC[C@@H](C)Oc1ccc(S(=O)(=O)C(F)(F)F)c2c1CC(F)(F)[C@H]2O [Compound 659] |

| SMILES | EC50 (786-O-Hif-Luc cells) [nM] | EC50 (786-O cells) [µM] | IC50 [1, 2] [nM] | IC50 [1, 3] [nM] |
| --- | --- | --- | --- | --- |
| CS(=O)(=O)c1ccc(OC2CC(F)(F)C2)c2c1[C@H](O)C(F)(F)[C@@H]2F [Compound 574, (1S,3R)-4-(3,3-difluorocyclobutoxy)-2,2,3-trifluoro-7-(methylsulfonyl)-2,3-dihydro-1H-inden-1-ol] | 50 to 249 | 0.05 to 0.249 | < 50 | – |
